From US5624937A, “Chemical compounds as inhibitors of amyloid beta protein production” (Eli Lilly and Company, priority 1995, dated 1997)

Tested on: Aβ production (APP-751 Swedish mutation transfected cells 293 751 SWE and CHO 751 SWE)
Experiment: Aβ production inhibition activity in cells (Aβ ELISA of conditioned media, normalized for MTT cytotoxicity)
Format: cell-based
Conditions: 2 h pretreatment + 2 h, normalized to MTT, mean of at least six replicate assays, cell line not stated, read-out: IC50 (concentration of test compound required to inhibit Aβ production by 50%)
Procedure: Two cell lines (human kidney cell line 293 and Chinese hamster ovary cell line CHO) were stably transfected with the gene for APP-751 containing the double mutation Lys651 -Met652 to Asn651 -Leu652 (APP-751 numbering) commonly called the Swedish mutation using the method described in Citron et al., (1992) Nature 360: 672-674. The transfected cell lines were designated as 293 751 SWE and CHO 751 SWE, and were plated in Corning 96 well plates at 2.5×10^4 or 1×10^4 cells per well respectively in Dulbecco's minimal essential media plus 10% fetal bovine serum. Following overnight incubation at 37° C. in an incubator equilibrated with 10% carbon dioxide (CO2), the media were removed and replaced with 200 μL per well of media containing a test compound. After a two hour pretreatment period, the media were again removed and replaced with fresh media containing the test compound and the cells were incubated for an additional two hours.
Test compound stocks were prepared in DMSO such that at the final concentration used in the treatment, the concentration of DMSO did no exceed 0.5%. After treatment, plates were centrifuged in a Beckman GPR at 1200 rpm for five minutes at room temperature to pellet cellular debris from the conditioned media. From each well, 100μL of conditioned media were transferred into an ELISA plate precoated with antibody 266 against βAP-13-28 (Seubert et al , supra.) and stored at 4° C. overnight. An ELISA assay employing labeled antibody 6C6 (against βAP-1-16) was run the next day to measure the amount of Aβ produced.
Cytotoxic effects of the test compounds were measured by a modification of the method of Hansen et al., (1989) J. Immun. Meth. 119: 203-210. To the cells remaining in the tissue culture plate, was added 25 μL of a 3,(4,5-dimethylthiazol-2-yl)2,5-diphenyltetrazolium bromide (MTT) stock solution (5 mg/mL) to a final concentration of 1 mg/mL. Cells were incubated at 37° C. for one hour, and cellular activity was stopped by the addition of an equal volume of MTT lysis buffer (20% w/v sodium dodecylsulfate in 50% DMF, pH 4.7). Complete extraction was achieved by overnight shaking at room temperature. The difference in the OD562 nm and the OD650 nm was measured in a Molecular Devices UVmax microplate reader as an indicator of the cellular viability.
The results of the Aβ ELISA were fit to a standard curve and expressed as ng/mL Aβ peptide. In order to normalize for cytotoxicity, these Aβ results were divided by the MTT results and expressed as a percentage of the results from a drug-free control.
The test compounds were assayed for Aβ production inhibition activity in cells at 10 μg/mL using the test. The results presented in Table 1 are the mean and standard deviation of at least six replicate assays. IC50 means the concentration of test compound in micromoles/liter required to inhibit Aβ production by 50%.

Structure (SMILES) | IC50
FC(F)(F)c1cc(NC(=S)Nc2ccc(Sc3ccc4ccccc4n3)cc2)ccc1Cl [Example 1, 1-[4-(2-quinolyl)thiophenyl]-3-(4-chloro-3-trifluoromethyphenyl)thiourea] | 3.7 µM
CCOC(=O)c1cc(Sc2ccc(NC(=S)Nc3ccc(Cl)c(C(F)(F)F)c3)cc2)nc2ccccc12 [Example 2, 1-[4-(4-ethoxycarbonyl-2-quinolylthio)phenyl]-3-(4-chloro-3-trifluoromethylphenyl)thiourea] | 3.1 µM
FC(F)(F)c1cc(NC(=S)Nc2ccc(Sc3ccc4cc(Cl)ccc4n3)cc2)ccc1Cl [Example 3, 1-[4-(6-Chloro-2-quinolylthio)phenyl]-3-(4-chloro-3-trifluoromethylphenyl)thiourea] | 2.7 µM
FC(F)(F)c1cc(NC(=S)Nc2ccc(Sc3cc(-c4ccccc4)c4ccccc4n3)cc2)ccc1Cl [Example 4, 1-[4-(4-Phenyl-2-quinolylthio)phenyl]-3-(4-chloro-3-trifluoromethylphenyl)thiourea] | > 20 µM
COc1ccc2nc(Sc3ccc(NC(=S)Nc4ccc(Cl)c(C(F)(F)F)c4)cc3)ccc2c1 [Example 5, 1-[4-(6-Methoxy-2-quinolylthio)phenyl]-3-(4-chloro-3-trifluoromethylphenyl)thiourea] | 4.4 µM
FC(F)(F)c1cc(NC(=S)Nc2ccc(Sc3ccnc4ccccc34)cc2)ccc1Cl [Example 6, 1-[4-(4-Quinolylthio)phenyl]-3-(4-chloro-3-trifluoromethylphenyl)thiourea] | 4.7 µM
FC(F)(F)c1ccc2c(Sc3ccc(NC(=S)Nc4ccc(Cl)c(C(F)(F)F)c4)cc3)ccnc2c1 [Example 7, 1-[4-(7-Trifluoromethyl-4-quinolylthio)phenyl]-3-(4-chloro-3-trifluoromethylphenyl)thiourea] | 4.5 µM
FC(F)(F)c1cc(NC(=S)Nc2ccc(Sc3ccc4ccccc4c3)cc2)ccc1Cl [Example 8, 1-[4-(2-Naphthylthio)phenyl]-3-(4-chloro-3-trifluoromethylphenyl)thiourea] | 2.6 µM
FC(F)(F)c1cc(NC(=S)Nc2ccc(Sc3cccc4ccccc34)cc2)ccc1Cl [Example 9] | 4.9 µM
FC(F)(F)c1cc(NC(=S)Nc2ccc(Sc3nc4ccccc4[nH]3)cc2)ccc1Cl [Example 10, 1-[4-(2-Benzimidazolylthio)phenyl]-3-(4-chloro-3-trifluoromethylphenyl)thiourea] | 7.1 µM
FC(F)(F)c1cc(NC(=S)Nc2ccc(Sc3nc4ccccc4o3)cc2)ccc1Cl [Example 11, 1-[4-(2-Benzoxazolylthio)phenyl]-3-(4-chloro-3-trifluoromethylphenyl)thiourea] | 12.5 µM
FC(F)(F)c1cc(NC(=S)Nc2ccc(Sc3nc4ccccc4s3)cc2)ccc1Cl [Example 12, 1-[4-(2-Benzothiazolylthio)phenyl]-3-(4-chloro-3-trifluoromethylphenyl)thiourea] | 3.9 µM
FC(F)(F)c1cc(NC(=S)Nc2ccc(Sc3nc4cc(Cl)ccc4s3)cc2)ccc1Cl [Example 13, 1-[4-(5-Chloro-2-benzothiazolylthio)phenyl]-3-(4-chloro-3-trifluoromethylphenyl)thiourea] | 1.7 µM
[O-][S+](c1ccc(NC(=S)Nc2ccc(Cl)c(C(F)(F)F)c2)cc1)c1ccc2ccccc2n1 (stereo not shown) [Example 14, 1-[4-(2-Quinolylsulfinyl)phenyl]-3-(4-chloro-3-trifluoromethylphenyl)thiourea] | 12.1 µM
O=S(=O)(c1ccc(NC(=S)Nc2ccc(Cl)c(C(F)(F)F)c2)cc1)c1ccc2ccccc2n1 [Example 15, 1-[4-(2-Quinolylsulfonyl)phenyl]-3-(4-chloro-3-trifluoromethylphenyl)thiourea] | 3.7 µM
FC(F)(F)c1cc(NC(=S)Nc2ccc(Nc3ccc4ccccc4n3)cc2)ccc1Cl [Example 16, 1-[4-(2-quinolylamino)phenyl]-3-(4-chloro-3-trifluoromethylphenyl)thiourea] | 11.8 µM
FC(F)(F)c1cc(NC(=S)Nc2ccc(Oc3ccc4ccccc4n3)cc2)ccc1Cl [Example 17, 1-[4-(2-Quinolyloxy)phenyl]-3-(4-chloro-3-trifluoromethylphenyl)thiourea] | 9.7 µM
O=C(Nc1ccc(Sc2ccc3ccccc3n2)cc1)Nc1ccc(Cl)c(C(F)(F)F)c1 [Example 18, 1-[4-(2-Quinolylthio)phenyl]-3-(4-chloro-3-trifluoromethylphenyl]urea] | > 20 µM
S=C(Nc1ccc(Sc2ccc3ccccc3n2)cc1)Nc1ccc(Cl)c(Cl)c1 [Example 19, 1-[4-(2-Quinolylthio)phenyl]-3-(3,4-dichlorophenyl)thiourea] | 13.8 µM
FC(F)(F)c1cc(NC(=S)Nc2ccc(Sc3ccc(-c4ccccc4)nn3)cc2)ccc1Cl [Example 20] | 4.4 µM
FC(F)(F)c1cc(NC(=S)Nc2ccc(Sc3ccccn3)cc2)ccc1Cl [Example 21] | 8.3 µM
O=[N+]([O-])c1c(Sc2ccc(NC(=S)Nc3ccc(Cl)c(C(F)(F)F)c3)cc2)ccc2ncccc12 [Example 22] | 4.3 µM
